Test results from article PMC3700073, “Synthesis and Biological Activity of New Thiopyrano[2,3-d]thiazoles Containing a Naphthoquinone Moiety” (Scientia Pharmaceutica, 2013).

What was measured:
HS 578T (breast cancer) = test: NCI five-dose assay; format: cell-based, human; settings: for GI50: Homo sapiens, Hs-578T, HS 578T, breast cancer
BT-549 (breast cancer) = test: NCI five-dose assay; format: cell-based; settings: Homo sapiens, BT-549, BT-549, breast cancer
HL-60(TB) (leukemia) = test: NCI five-dose assay; format: cell-based; settings: Homo sapiens, HL-60, HL-60(TB)
PC-3 (prostate cancer) = test: NCI five-dose assay; format: cell-based; settings: Homo sapiens
NCI-H322M (NSCL cancer) = test: NCI five-dose assay; format: cell-based; settings: Homo sapiens
MOLT-4 (leukemia) = test: NCI five-dose assay; format: cell-based; settings: Homo sapiens, MOLT-4, MOLT-4, leukemia
NCI-H23 (NSCL cancer) = test: NCI five-dose assay; format: cell-based; settings: Homo sapiens
UACC-257 (melanoma) = test: NCI five-dose assay; format: cell-based, human; settings: for GI50: Homo sapiens, UACC-257, UACC-257, melanoma
UO-31 (renal cancer) = test: NCI five-dose assay; format: cell-based; settings: Homo sapiens, UO-31, UO-31, renal cancer
RPMI-8226 (leukemia) = test: NCI five-dose assay; format: cell-based; settings: Homo sapiens, RPMI-8226, RPMI-8226, leukemia
A549/ATCC (NSCL cancer) = test: NCI five-dose assay; format: cell-based; settings: Homo sapiens
male mice = test: Acute toxicity in vivo, median lethal dose; settings: intraperitoneal, approximate LD50 (Litchfield and Wilcoxon)
Experimental: The synthesized compounds were evaluated for their approximate LD50 in male mice. The mice were kept under a constant temperature and humidity in sterile cages with water and food. The stock solutions of the compounds used in this study were prepared immediately before usage and injected intraperitoneally (ip). The LD50 values (Tab. 3) were calculated using the method described by Litchfield and Wilcoxon.
The median lethal dose (LD50), the dose of the selected compounds that causes 50% mortality in mice, was determined from dose–response curves with at least four doses by the method of Litchfield and Wilcoxon.

U251 (CNS cancer) = test: NCI five-dose assay; format: cell-based; settings: Homo sapiens, U-251, U251, CNS cancer
HOP-62 (NSCL cancer) = test: NCI five-dose assay; format: cell-based; settings: Homo sapiens, HOP-62, HOP-62, NSCL cancer
SK-MEL-2 (melanoma) = test: NCI five-dose assay; format: cell-based; settings: Homo sapiens, SK-MEL-2, SK-MEL-2, melanoma
EKVX (NSCL cancer) = test: NCI five-dose assay; format: cell-based; settings: Homo sapiens
HCT-116 (colon cancer) = test: NCI five-dose assay; format: cell-based; settings: Homo sapiens, HCT-116, HCT-116, colon cancer
LOX IMVI (melanoma) = test: NCI five-dose assay; format: cell-based; settings: Homo sapiens
SF-268 (CNS cancer) = test: NCI five-dose assay; format: cell-based; settings: Homo sapiens, SF-268, SF-268, CNS cancer
K-562 (leukemia) = test: NCI five-dose assay; format: cell-based; settings: Homo sapiens, K562, K-562, leukemia
SN12C (renal cancer) = test: NCI five-dose assay; format: cell-based; settings: Homo sapiens
HCT-15 (colon cancer) = test: NCI five-dose assay; format: cell-based; settings: Homo sapiens, HCT-15, HCT-15, colon cancer
NCI-H226 (NSCL cancer) = test: NCI five-dose assay; format: cell-based; settings: Homo sapiens
[1] = system: NCI/ADR-RES (breast cancer); test: NCI five-dose assay; format: cell-based; settings: Homo sapiens
OVCAR-3 (ovarian cancer) = test: NCI five-dose assay; format: cell-based; settings: Homo sapiens, OVCAR-3, OVCAR-3, ovarian cancer
SK-OV-3 (ovarian cancer) = test: NCI five-dose assay; format: cell-based; settings: Homo sapiens, SK-OV-3, SK-OV-3, ovarian cancer
[2] = system: MDA-MB-435 (breast cancer); test: NCI five-dose assay; format: cell-based; settings: Homo sapiens, MDA-MB-435, MDA-MB-435, breast cancer
SK-MEL-28 (melanoma) = test: NCI five-dose assay; format: cell-based; settings: Homo sapiens, SK-MEL-28, SK-MEL-28, melanoma
786-0 (renal cancer) = test: NCI five-dose assay; format: cell-based; settings: Homo sapiens, 786-0, 786-0, renal cancer
HOP-92 (NSCL cancer) = test: NCI five-dose assay; format: cell-based; settings: Homo sapiens, HOP-92, HOP-92, NSCL cancer
RXF-393 (renal cancer) = test: NCI five-dose assay; format: cell-based; settings: Homo sapiens
SK-MEL-5 (melanoma) = test: NCI five-dose assay; format: cell-based, human; settings: for GI50: Homo sapiens, SK-MEL-5, SK-MEL-5, melanoma
SR (leukemia) = test: NCI five-dose assay; format: cell-based; settings: Homo sapiens
[3] = system: MDA-MB-231/ATCC (breast cancer); test: NCI five-dose assay; format: cell-based; settings: Homo sapiens, MDA-MB-231, MDA-MB-231/ATCC
OVCAR-5 (ovarian cancer) = test: NCI five-dose assay; format: cell-based; settings: Homo sapiens, OVCAR-5, OVCAR-5, ovarian cancer
IGROV-1 (ovarian cancer) = test: NCI five-dose assay; format: cell-based; settings: Homo sapiens

SMILES: COc1cc(C2C3=C(Sc4[nH]c(=O)sc42)C(=O)c2ccccc2C3=O)ccc1O (centres unmarked) [Compound 4i, 11-(4-Hydroxy-3-methoxyphenyl)-3,11-dihydro-2H-benzo[6,7]thiochromeno[2,3-d]-[1,3]thiazole-2,5,10-trione]
- TGI of the most sensitive cell line (HS 578T (breast cancer); HS 578T /breast cancer/): 0.27 / 1.09 μM
- GI50 (HS 578T (breast cancer)): 270 nM
- GI50 (HS 578T (breast cancer); repeated testing): 650 nM
- GI50 (BT-549 (breast cancer)): 2740 nM
- GI50 (BT-549 (breast cancer); repeated testing): 920 nM
- GI50 (HL-60(TB) (leukemia)): 2010 nM
- GI50 (HL-60(TB) (leukemia); repeated testing): 1260 nM
- GI50 (PC-3 (prostate cancer)): 1980 nM
- GI50 (PC-3 (prostate cancer); repeated testing): 2570 nM
- GI50 (NCI-H322M (NSCL cancer)): 2050 nM
- GI50 (NCI-H322M (NSCL cancer); repeated testing): 1860 nM
- GI50 (MOLT-4 (leukemia)): 2.77 µM
- GI50 (MOLT-4 (leukemia); repeated testing): 3.67 µM
- GI50 (NCI-H23 (NSCL cancer)): 950 nM
- GI50 (NCI-H23 (NSCL cancer); repeated testing): 410 nM
- GI50 (UACC-257 (melanoma)): 1310 nM
- GI50 (UACC-257 (melanoma); repeated testing): 220 nM
- TGI of the most sensitive cell line (UACC-257 (melanoma); UACC-257 /melanoma/, repeated testing): (0.22 / 1.82) μM
- GI50 (UO-31 (renal cancer)): 3.33 µM
- GI50 (UO-31 (renal cancer); repeated testing): 0.57 µM
- GI50 (RPMI-8226 (leukemia)): 1930 nM
- GI50 (RPMI-8226 (leukemia); repeated testing): 1330 nM
- GI50 (A549/ATCC (NSCL cancer)): 1340 nM
- GI50 (A549/ATCC (NSCL cancer); repeated testing): 650 nM
- LD50ip (male mice): 280 mg/kg
- GI50 (U251 (CNS cancer)): 1630 nM
- GI50 (U251 (CNS cancer); repeated testing): 2210 nM
- GI50 (HOP-62 (NSCL cancer)): 0.4 µM
- GI50 (HOP-62 (NSCL cancer); repeated testing): 3.6 µM
- GI50 (SK-MEL-2 (melanoma)): 2210 nM
- GI50 (SK-MEL-2 (melanoma); repeated testing): 980 nM
- GI50 (EKVX (NSCL cancer)): 3.24 µM
- GI50 (EKVX (NSCL cancer); repeated testing): 4.03 µM
- GI50 (HCT-116 (colon cancer)): 3.36 µM
- GI50 (HCT-116 (colon cancer); repeated testing): 2.46 µM
- GI50 (LOX IMVI (melanoma)): 160 nM
- GI50 (LOX IMVI (melanoma); repeated testing): 250 nM
- GI50 (SF-268 (CNS cancer)): 2.53 µM
- GI50 (SF-268 (CNS cancer); repeated testing): 3.3 µM
- GI50 (K-562 (leukemia); repeated testing): 1.98 µM
- GI50 (K-562 (leukemia); result printed as symbol): > 100 µM
- GI50 (SN12C (renal cancer); repeated testing): 3.02 µM
- GI50 (HCT-15 (colon cancer)): 2070 nM
- GI50 (HCT-15 (colon cancer); repeated testing): 1740 nM
- GI50 (NCI-H226 (NSCL cancer)): 1740 nM
- GI50 (NCI-H226 (NSCL cancer); repeated testing): 2850 nM
- GI50 [1]: 8.39 µM
- GI50 ([1]; repeated testing): 4.5 µM
- GI50 (OVCAR-3 (ovarian cancer)): 1030 nM
- GI50 (OVCAR-3 (ovarian cancer); repeated testing): 570 nM
- GI50 (SK-OV-3 (ovarian cancer)): 8.28 µM
- GI50 (SK-OV-3 (ovarian cancer); repeated testing): 5.72 µM
- GI50 [2]: 1380 nM
- GI50 ([2]; repeated testing): 1480 nM
- GI50 (SK-MEL-28 (melanoma)): 1790 nM
- GI50 (SK-MEL-28 (melanoma); repeated testing): 1410 nM
- GI50 (786-0 (renal cancer)): 2.6 µM
- GI50 (786-0 (renal cancer); repeated testing): 5.2 µM
- GI50 (HOP-92 (NSCL cancer)): 1440 nM
- GI50 (HOP-92 (NSCL cancer); repeated testing): 2150 nM
- GI50 (RXF-393 (renal cancer)): 2.52 µM
- GI50 (SK-MEL-5 (melanoma)): 960 nM
- GI50 (SK-MEL-5 (melanoma); repeated testing): 480 nM
- GI50 (SR (leukemia)): 41.4 µM
- GI50 (SR (leukemia); repeated testing): 1.96 µM
- GI50 [3]: 860 nM
- GI50 ([3]; repeated testing): 1980 nM
- GI50 (OVCAR-5 (ovarian cancer)): 10.4 µM
- GI50 (OVCAR-5 (ovarian cancer); repeated testing): 4.49 µM
- GI50 (IGROV-1 (ovarian cancer)): 2.48 µM

SMILES: COc1cc(C2C3=C(Sc4[nH]c(=O)sc42)C(=O)c2ccccc2C3=O)ccc1OCc1ccccc1 (centres unmarked) [Compound 4e, 11-[4-(Benzyloxy)-3-methoxyphenyl]-3,11-dihydro-2H-benzo[6,7]thiochromeno[2,3-d]-[1,3]thiazole-2,5,10-trione]
- GI50 (HS 578T (breast cancer)): 4520 nM
- GI50 (BT-549 (breast cancer)): 13400 nM
- GI50 (HL-60(TB) (leukemia)): 15200 nM
- GI50 (PC-3 (prostate cancer)): 17700 nM
- GI50 (NCI-H322M (NSCL cancer)): 10900 nM
- GI50 (MOLT-4 (leukemia)): 17.3 µM
- GI50 (NCI-H23 (NSCL cancer)): 3990 nM
- GI50 (UACC-257 (melanoma)): 11300 nM
- GI50 (UO-31 (renal cancer)): 5.62 µM
- GI50 (RPMI-8226 (leukemia)): 14500 nM
- GI50 (A549/ATCC (NSCL cancer)): 3160 nM
- LD50ip (male mice): >1000 mg/kg
- GI50 (U251 (CNS cancer)): 15100 nM
- GI50 (HOP-62 (NSCL cancer)): 14.9 µM
- GI50 (SK-MEL-2 (melanoma)): 20300 nM
- GI50 (EKVX (NSCL cancer)): 16.3 µM
- GI50 (HCT-116 (colon cancer)): 15.6 µM
- GI50 (LOX IMVI (melanoma)): 8030 nM
- GI50 (SF-268 (CNS cancer)): 14.1 µM
- GI50 (K-562 (leukemia)): 19.4 µM
- GI50 (SN12C (renal cancer)): 15.3 µM
- GI50 (HCT-15 (colon cancer)): 11500 nM
- GI50 (NCI-H226 (NSCL cancer)): 19200 nM
- GI50 [1]: 22.7 µM
- GI50 (OVCAR-3 (ovarian cancer)): 11200 nM
- GI50 (SK-OV-3 (ovarian cancer)): 31.7 µM
- GI50 [2]: 12000 nM
- GI50 (SK-MEL-28 (melanoma)): 12200 nM
- GI50 (786-0 (renal cancer)): 32.6 µM
- GI50 (HOP-92 (NSCL cancer)): 11500 nM
- GI50 (RXF-393 (renal cancer)): 6.98 µM
- GI50 (SK-MEL-5 (melanoma)): 2620 nM
- TGI of the most sensitive cell line (SK-MEL-5 (melanoma); SK-MEL-5 /melanoma/): 2.62 / 6.90 μM
- GI50 (SR (leukemia)): 13.8 µM
- GI50 [3]: 7810 nM
- GI50 (OVCAR-5 (ovarian cancer)): 32.1 µM
- GI50 (IGROV-1 (ovarian cancer)): 15.4 µM
